Measured values reported in ChEMBL document CHEMBL1201862, “PubChem BioAssay data set” (2004).
Activity calls are given as the source filed them.

Legend:
Vero = test: cells; type: functional; settings: Chlorocebus sabaeus
Cytochrome P450 3A4 = Cytochrome P450 3A4 (Homo sapiens, UniProt P08684);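 also: CYP3A4 tested as one member of a cytochrome P450 panel screen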
Cytochrome P450 2C19 = Cytochrome P450 2C19 (Homo sapiens, UniProt P33261); test: Cytochrome panel assay with activity outcomes. Panel member name: p450-cyp2c19 Compounds with AC50 equal or less than 10 uM are considered active; type: functional; settings: read-out: AC50
Cytochrome P450 2D6 = Cytochrome P450 2D6 (Homo sapiens, UniProt P10635);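 also: CYP2D6 member of a cytochrome P450 panel assay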
[1] = biological target: T1, Polyadenylate-binding protein 1 (Homo sapiens, UniProt P11940); test: MLLE binding blockers, Cy5 peptide tracer – biochemical, fluorescence polarization, Cy5-PAM2 peptide, secondary, miRNA deadenylation inhibitor project, dose response (AID 602260); type: functional; settings: read-out: IC50_Mean
[2] = biological target: T1, Polyadenylate-binding protein 1; test: MLLE domain peptide-binding blockers, IC50 – biochemical, fluorescence polarization, FITC-PAM2 peptide, dose response (AID 602259); type: functional; settings: read-out: IC50_Mean
[3] = biological target: T2, Heat shock factor protein 1 (Mus musculus, UniProt P38532); test: enhancement of HSF1-driven luciferase signal – cell-based, NIH3T3, luminescence, dose retest, confirmation (AID 435004); type: functional;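 also: stress induced by proteasome inhibitor MG132 added 30 min after compound; luciferase reporter driven by HSF1 response element in NIH3T3 cells; actives raise luminescence as potentiators of the MG132 stress response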
T2 sequence (P38532 whole entry): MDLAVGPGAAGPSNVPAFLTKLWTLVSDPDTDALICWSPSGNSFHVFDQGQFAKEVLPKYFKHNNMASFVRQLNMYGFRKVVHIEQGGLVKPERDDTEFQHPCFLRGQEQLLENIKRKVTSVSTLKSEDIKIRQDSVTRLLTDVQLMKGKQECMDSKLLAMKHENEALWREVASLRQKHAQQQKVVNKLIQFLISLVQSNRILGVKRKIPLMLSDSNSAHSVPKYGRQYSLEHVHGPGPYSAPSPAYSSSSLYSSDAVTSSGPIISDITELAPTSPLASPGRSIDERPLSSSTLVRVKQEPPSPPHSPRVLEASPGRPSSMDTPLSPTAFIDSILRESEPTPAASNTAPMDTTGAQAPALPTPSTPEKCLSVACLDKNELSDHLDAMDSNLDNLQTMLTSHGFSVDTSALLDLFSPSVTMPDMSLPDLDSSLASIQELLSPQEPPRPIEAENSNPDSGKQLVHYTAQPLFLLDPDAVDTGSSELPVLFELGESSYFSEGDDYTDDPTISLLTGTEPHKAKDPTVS

Cytochrome P450 2C9 = Cytochrome P450 2C9 (Homo sapiens, UniProt P11712)
[4] = P. falciparum Dd2 growth inhibitors, dose response, SYBR Green, cherry-picked samples (AID 1159567); type: functional, cell-based
Large T antigen = Large T antigen (Simian virus 40, UniProt P03070); type: functional, Betapolyomavirus macacae;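 also: Confirmatory-stage PubChem screen for compounds that inhibit SV40 T antigen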
[5] = biological target: T3, Replicative DNA helicase DnaB (Mycobacterium tuberculosis, UniProt P9WMR3); test: DnaB intein splicing inhibitors, dose response, biochemical, cell-free fluorescence (AID 449749); type: functional
T3 sequence (P9WMR3 whole entry): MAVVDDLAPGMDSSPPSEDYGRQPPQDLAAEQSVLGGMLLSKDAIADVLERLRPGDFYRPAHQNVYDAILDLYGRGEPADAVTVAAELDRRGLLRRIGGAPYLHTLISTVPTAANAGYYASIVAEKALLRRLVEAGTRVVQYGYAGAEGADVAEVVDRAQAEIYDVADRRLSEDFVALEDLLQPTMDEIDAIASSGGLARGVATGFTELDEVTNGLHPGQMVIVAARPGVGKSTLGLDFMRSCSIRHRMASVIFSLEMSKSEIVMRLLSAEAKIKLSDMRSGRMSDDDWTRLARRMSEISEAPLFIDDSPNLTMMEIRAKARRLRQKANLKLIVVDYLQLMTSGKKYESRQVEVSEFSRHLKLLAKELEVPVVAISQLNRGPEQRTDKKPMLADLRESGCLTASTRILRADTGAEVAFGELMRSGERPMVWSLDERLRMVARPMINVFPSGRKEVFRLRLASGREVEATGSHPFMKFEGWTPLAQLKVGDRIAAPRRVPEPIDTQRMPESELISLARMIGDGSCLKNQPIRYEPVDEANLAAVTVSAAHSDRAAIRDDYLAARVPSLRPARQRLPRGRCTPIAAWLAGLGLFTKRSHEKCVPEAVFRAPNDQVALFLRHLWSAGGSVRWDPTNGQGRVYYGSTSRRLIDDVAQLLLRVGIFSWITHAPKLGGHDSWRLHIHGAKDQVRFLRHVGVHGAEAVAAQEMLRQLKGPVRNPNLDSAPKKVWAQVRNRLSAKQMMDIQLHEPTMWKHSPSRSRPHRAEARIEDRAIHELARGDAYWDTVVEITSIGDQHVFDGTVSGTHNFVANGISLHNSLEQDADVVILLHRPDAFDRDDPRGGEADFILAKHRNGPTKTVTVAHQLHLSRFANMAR

Protein RecA = biological target: T4, Protein RecA (Mycobacterium tuberculosis, UniProt P9WHJ3); test: Fluorescence Cell-Free Homogeneous Dose Retest to Identify Inhibitors of RecA-Intein Splicing Activity. [Related pubchem assays (depositor defined):AID2097, AID2223, AID489010, AID492950]; type: functional
T4 sequence (P9WHJ3 whole entry): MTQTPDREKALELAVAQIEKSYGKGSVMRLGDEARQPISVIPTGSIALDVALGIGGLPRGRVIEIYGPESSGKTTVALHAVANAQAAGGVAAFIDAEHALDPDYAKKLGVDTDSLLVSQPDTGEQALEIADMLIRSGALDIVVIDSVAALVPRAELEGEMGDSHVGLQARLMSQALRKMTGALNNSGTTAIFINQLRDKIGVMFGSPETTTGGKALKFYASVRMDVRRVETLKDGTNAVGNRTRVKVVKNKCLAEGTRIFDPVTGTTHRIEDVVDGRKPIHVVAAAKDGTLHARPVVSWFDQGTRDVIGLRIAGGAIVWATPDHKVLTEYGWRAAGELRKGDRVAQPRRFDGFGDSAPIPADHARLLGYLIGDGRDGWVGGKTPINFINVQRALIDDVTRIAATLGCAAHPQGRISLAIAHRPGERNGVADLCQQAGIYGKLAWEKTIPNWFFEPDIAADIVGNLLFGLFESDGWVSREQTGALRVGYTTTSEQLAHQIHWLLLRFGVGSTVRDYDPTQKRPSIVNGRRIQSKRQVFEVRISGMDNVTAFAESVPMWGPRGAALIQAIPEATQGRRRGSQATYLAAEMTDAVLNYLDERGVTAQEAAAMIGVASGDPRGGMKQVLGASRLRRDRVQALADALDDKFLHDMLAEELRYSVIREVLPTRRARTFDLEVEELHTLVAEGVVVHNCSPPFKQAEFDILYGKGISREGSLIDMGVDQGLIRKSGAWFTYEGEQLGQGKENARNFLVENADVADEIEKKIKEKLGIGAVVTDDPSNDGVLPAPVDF

Cytochrome P450 1A2 = biological target: T5, Cytochrome P450 1A2 (Homo sapiens, UniProt P05177);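 also: PubChem cytochrome P450 panel assay, CYP1A2 panel member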
T5 sequence (P05177 whole entry): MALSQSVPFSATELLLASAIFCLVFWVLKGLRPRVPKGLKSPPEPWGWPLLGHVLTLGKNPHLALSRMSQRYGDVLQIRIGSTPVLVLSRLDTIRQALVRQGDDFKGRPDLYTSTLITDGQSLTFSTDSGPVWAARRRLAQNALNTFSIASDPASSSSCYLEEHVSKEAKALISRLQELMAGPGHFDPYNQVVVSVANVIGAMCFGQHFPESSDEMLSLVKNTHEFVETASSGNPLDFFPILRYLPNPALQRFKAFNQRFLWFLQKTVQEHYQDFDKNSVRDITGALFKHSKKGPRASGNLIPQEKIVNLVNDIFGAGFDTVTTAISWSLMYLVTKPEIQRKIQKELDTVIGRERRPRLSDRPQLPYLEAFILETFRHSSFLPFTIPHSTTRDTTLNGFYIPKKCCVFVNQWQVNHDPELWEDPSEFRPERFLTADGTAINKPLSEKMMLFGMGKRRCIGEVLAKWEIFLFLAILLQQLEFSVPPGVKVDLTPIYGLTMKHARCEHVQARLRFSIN

Sequence of Cytochrome P450 2C19 (P33261 whole entry): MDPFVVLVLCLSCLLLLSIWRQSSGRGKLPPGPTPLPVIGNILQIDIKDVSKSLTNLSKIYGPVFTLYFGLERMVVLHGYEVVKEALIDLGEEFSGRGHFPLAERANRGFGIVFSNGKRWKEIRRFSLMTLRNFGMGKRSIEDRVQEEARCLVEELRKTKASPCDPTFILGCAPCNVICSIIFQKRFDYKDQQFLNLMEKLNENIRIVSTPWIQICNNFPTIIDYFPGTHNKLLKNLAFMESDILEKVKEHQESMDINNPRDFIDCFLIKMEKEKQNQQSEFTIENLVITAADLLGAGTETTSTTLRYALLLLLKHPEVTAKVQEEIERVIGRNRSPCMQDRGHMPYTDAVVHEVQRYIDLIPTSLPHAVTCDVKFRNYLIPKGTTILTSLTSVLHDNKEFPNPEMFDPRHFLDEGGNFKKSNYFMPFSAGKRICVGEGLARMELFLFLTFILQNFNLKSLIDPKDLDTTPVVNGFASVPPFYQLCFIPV
Sequence of Cytochrome P450 3A4 (P08684 whole entry): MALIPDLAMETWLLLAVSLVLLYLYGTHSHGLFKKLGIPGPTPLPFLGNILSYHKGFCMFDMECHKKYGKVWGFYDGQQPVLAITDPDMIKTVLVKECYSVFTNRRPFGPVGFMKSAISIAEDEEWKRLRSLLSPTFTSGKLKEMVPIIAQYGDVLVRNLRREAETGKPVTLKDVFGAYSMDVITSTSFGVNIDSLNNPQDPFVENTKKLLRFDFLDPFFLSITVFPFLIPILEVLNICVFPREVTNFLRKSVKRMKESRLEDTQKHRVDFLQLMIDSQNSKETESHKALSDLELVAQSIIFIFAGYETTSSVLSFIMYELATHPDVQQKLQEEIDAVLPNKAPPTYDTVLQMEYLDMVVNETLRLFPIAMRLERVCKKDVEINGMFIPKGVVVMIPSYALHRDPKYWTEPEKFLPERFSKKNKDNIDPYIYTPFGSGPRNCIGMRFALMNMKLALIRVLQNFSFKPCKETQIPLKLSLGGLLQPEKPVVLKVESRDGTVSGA
Sequence of Cytochrome P450 2D6 (P10635 whole entry): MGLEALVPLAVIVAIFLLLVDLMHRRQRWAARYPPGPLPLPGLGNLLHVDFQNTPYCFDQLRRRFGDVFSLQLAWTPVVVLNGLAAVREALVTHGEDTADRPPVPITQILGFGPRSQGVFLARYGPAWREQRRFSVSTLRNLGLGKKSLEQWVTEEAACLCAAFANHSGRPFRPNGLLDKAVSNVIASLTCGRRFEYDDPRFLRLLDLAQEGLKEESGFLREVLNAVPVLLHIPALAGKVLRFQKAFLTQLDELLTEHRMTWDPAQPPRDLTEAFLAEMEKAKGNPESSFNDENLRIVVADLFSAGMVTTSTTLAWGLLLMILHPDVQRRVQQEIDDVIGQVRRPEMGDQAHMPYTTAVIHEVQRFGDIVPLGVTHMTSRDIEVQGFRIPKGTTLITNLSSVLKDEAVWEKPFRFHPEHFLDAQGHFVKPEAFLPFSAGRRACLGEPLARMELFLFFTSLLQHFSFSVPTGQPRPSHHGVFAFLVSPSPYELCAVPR
T1 sequence (P11940 whole entry, the tested form may be a part): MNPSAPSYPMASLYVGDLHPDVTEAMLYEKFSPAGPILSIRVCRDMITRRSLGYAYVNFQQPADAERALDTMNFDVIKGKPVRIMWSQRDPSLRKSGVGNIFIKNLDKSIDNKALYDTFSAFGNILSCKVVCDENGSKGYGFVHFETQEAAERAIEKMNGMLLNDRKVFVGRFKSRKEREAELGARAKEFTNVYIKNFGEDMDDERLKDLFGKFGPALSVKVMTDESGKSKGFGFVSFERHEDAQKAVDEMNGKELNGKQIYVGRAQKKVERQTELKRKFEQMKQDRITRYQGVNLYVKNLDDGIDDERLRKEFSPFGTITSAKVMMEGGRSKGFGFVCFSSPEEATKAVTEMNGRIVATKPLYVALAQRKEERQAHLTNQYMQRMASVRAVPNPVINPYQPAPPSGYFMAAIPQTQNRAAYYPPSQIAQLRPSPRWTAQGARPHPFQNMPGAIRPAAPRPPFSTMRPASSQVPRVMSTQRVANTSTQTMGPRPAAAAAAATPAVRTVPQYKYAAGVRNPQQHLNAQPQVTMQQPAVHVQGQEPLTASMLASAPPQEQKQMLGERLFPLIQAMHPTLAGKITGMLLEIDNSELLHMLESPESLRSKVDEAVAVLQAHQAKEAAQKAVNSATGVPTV
Sequence of Cytochrome P450 2C9 (P11712 whole entry): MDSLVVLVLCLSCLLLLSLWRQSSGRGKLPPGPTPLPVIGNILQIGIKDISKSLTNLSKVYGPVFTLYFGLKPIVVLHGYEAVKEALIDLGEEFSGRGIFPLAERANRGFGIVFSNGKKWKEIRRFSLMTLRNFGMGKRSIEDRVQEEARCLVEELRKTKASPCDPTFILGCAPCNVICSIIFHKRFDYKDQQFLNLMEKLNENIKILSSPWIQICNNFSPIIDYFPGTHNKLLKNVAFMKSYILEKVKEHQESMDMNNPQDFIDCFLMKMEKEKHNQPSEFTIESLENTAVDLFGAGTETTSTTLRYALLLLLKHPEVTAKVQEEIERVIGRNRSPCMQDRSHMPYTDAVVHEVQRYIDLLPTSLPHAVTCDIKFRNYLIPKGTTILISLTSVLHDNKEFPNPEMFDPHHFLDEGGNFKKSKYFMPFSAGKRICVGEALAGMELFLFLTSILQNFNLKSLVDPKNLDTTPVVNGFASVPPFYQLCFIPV
Sequence of Large T antigen (P03070 whole entry): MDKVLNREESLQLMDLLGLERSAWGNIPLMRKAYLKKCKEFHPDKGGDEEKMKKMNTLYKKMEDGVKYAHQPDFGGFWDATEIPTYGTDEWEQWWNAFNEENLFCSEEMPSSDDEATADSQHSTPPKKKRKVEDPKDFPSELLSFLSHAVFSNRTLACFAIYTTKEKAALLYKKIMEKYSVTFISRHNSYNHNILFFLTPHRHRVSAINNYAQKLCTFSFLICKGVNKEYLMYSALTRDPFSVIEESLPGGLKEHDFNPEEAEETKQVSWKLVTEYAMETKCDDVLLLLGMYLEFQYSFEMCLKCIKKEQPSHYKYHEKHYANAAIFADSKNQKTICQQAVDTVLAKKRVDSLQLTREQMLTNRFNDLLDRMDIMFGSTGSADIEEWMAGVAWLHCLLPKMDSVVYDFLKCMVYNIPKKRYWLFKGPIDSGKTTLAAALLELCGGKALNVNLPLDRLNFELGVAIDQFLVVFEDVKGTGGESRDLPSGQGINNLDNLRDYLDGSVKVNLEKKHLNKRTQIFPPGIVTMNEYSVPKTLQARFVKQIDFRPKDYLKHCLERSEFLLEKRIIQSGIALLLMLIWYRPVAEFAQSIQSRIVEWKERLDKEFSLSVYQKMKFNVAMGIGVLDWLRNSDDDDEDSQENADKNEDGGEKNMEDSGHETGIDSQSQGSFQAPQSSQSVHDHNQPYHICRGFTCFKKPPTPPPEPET

COc1ccc(OC)c(/C=C/C(=O)c2ccc3c(c2)OCCO3)c1
CC50 (Vero): 18.8 µM (active)

Cc1cc(S(=O)(=O)NCCCN2CCOCC2)ccc1F
AC50 (Cytochrome P450 3A4): 28.2 µM (inconclusive) | AC50 (Cytochrome P450 2C19): 28.2 µM (inconclusive)

CO/N=C1/c2cc(OC)ccc2O[C@@H](c2cccc(OC)c2)[C@H]1O
AC50 (Cytochrome P450 3A4): 6.31 µM (inconclusive) | AC50 (Cytochrome P450 2C19): 3.98 µM (inconclusive) | AC50 (Cytochrome P450 2D6): 3.16 µM (inconclusive)

COC(=O)c1c(NC(=O)c2ccc(C)o2)sc2c1CCCCC2
IC50 [1]: > 66 µM (inactive) | IC50 [2]: > 66 µM (inactive)

O=C(NCc1ccc(N2CCCC2=O)cc1)Nc1ccccc1
EC50 [3]: > 260 µM (inactive)

COc1ccc(CNCCc2ccccc2)cc1OCC(N)=O
AC50 (Cytochrome P450 3A4): 17.8 µM (inconclusive) | AC50 (Cytochrome P450 2C19): 6.31 µM (inconclusive) | AC50 (Cytochrome P450 2C9): 0.0282 µM (inconclusive)

CCC(C)c1ccccc1NC(=O)c1cc(C)no1 (stereo unspecified)
EC50 [3]: > 260 µM (inactive)

CCCC(=O)N1CCC2(CC1)CN(Cc1ccncc1)[C@@H](CO)c1[nH]c3cc(OC)ccc3c12
AC50 [4]: 7.29 µM (active)

Fc1cc(NCc2ccccc2)nc(NCc2ccccc2)n1
EC50 [3]: 91.1 µM (active)

CC1=Nc2cc(C(=O)O)ccc2Sc2c(C)ccc(C)c21
EC50 [3]: > 260 µM (inactive)

Cc1ccc(S(=O)(=O)Cc2cc(F)c([N+](=O)[O-])cc2[N+](=O)[O-])cc1
IC50 (Large T antigen): 4.86 µM (active) | AC50 [5]: 16.6 µM (active) | EC50 (Protein RecA): 17.2 µM (active)

CCCNC(=O)Nc1ccc2c(c1)OC[C@@H](C)N(CC1CCCC1)C[C@@H](C)[C@H](OC)CN(C)C2=O
AC50 [4]: 6.1 µM (active)

Cc1ccc(CN2CCN(/N=C/c3ccc(C)s3)CC2)c(C)c1
EC50 [3]: > 260 µM (inactive)

Cc1ccnc(N2CCCC(C(=O)Nc3ccc(C)c(C)c3)C2)n1 (stereo unspecified)
EC50 [3]: > 260 µM (inactive)

C[C@@H]1CN([C@@H](C)CO)C(=O)c2cc(C#Cc3ccccc3)cnc2O[C@H]1CN(C)C(=O)CCN1CCCCC1
AC50 [4]: 3.03 µM (active)

Cc1ccccc1NC(=O)OCc1cn(-c2ccc(Cl)cc2)nn1
AC50 (Cytochrome P450 3A4): 0.794 µM (inconclusive) | AC50 (Cytochrome P450 2C19): 8.91 µM (inconclusive) | AC50 (Cytochrome P450 2D6): 0.708 µM (inconclusive)

COc1ccc2c3c(n(C)c2c1)[C@@H](CO)N(C(=O)Nc1ccc(F)cc1)CC31CN(C(=O)c2ccc3c(c2)OCO3)C1
AC50 [4]: 5.67 µM (active)

O=C(C1CCCC1)N1CC[C@@H]2[C@H](CO)Nc3ccc(Br)cc3[C@@H]21
AC50 [4]: 12.7 µM (active)

COc1ccc(S(=O)(=O)N2CCC(C(=O)NCc3cccnc3)CC2)cc1C
EC50 [3]: > 260 µM (inactive)

O=C(CSc1ncn(-c2ccccc2)n1)Nc1ccc2c(c1)OCCO2
IC50 [1]: > 66 µM (inactive) | IC50 [2]: > 66 µM (inactive)

CC1C(=O)N(Cc2cn(Cc3ccco3)nn2)CCS(=O)(=O)N1Cc1ccc(-c2ccccc2)cc1 (stereo unspecified)
CC50 (Vero): > 25 µM (active)

CCc1ccccc1NC1=NCC(=O)N1C1CCCCC1
EC50 [3]: > 260 µM (inactive)

COc1ccc(-c2nnn(Cc3nc(N)nc(N4CCOCC4)n3)n2)cc1OC
AC50 (Cytochrome P450 3A4): 28.2 µM (inconclusive) | AC50 (Cytochrome P450 2C19): 35.5 µM (inconclusive) | AC50 (Cytochrome P450 2D6): 12.6 µM (inconclusive) | AC50 (Cytochrome P450 2C9): 25.1 µM (inconclusive)

COc1ccc(C(=O)NC(=S)Nc2nc(C)c(C(=O)N(C)C)s2)cc1
IC50 [1]: > 66 µM (inactive) | IC50 [2]: > 66 µM (inactive)

O=C(CSc1nccc(=O)[nH]1)N1CCCc2ccccc21
IC50 [1]: > 66 µM (inactive) | IC50 [2]: > 66 µM (inactive)

CCOC(=O)/C(C#N)=C1/SC(CC)C(=O)N1c1ccc(Br)cc1 (stereo unspecified)
AC50 (Cytochrome P450 3A4): 28.2 µM (inconclusive) | AC50 (Cytochrome P450 1A2): 31.6 µM (inconclusive) | AC50 (Cytochrome P450 2D6): 11.2 µM (inconclusive)

NNC(=O)C1C(O)CCC2CN3CCc4c([nH]c5ccccc45)C3CC21 (stereo unspecified)
CC50 (Vero): > 25 µM (active)

N=c1n(-c2ccccc2)c(O)cc(=O)n1-c1ccccc1
AC50 (Cytochrome P450 3A4): 25.1 µM (inconclusive) | AC50 (Cytochrome P450 2D6): 22.4 µM (inconclusive)

COc1ccc(Nc2ccc([N+](=O)[O-])cn2)cn1
IC50 [1]: > 66 µM (inactive) | IC50 [2]: 59.6 µM (inactive)

CCCN1C2=NCCCN2c2ccccc21
AC50 (Cytochrome P450 3A4): 35.5 µM (inconclusive) | AC50 (Cytochrome P450 2C19): 20 µM (inconclusive)
